Results published in US8846711B2, “Heterocyclic acrylamides and their use as pharmaceuticals” (Fab Pharma S.A.S., priority 2009, dated 2014).
pIC50: −log10 of the molar value. Values after ≈ are worked out from the molar mass of the structure shown.

Key:
[1] = molecular target: recombinant S. aureus FabI enzyme (Staphylococcus aureus (strain MRSA252), UniProt Q6GI75); test: FabI inhibition, fluorescence based assay; type: biochemical; conditions: in vitro
Procedure: Compound inhibitory activity of FabI enzyme is measured in vitro by the […] determination using a fluorescence based assay.
The protein FabI from S. aureus is prepared and purified using standard methods for recombinant protein expression after cloning of the gene in a prokaryotic expression vector.
The biochemical activity of the FabI enzyme is assessed using the following method.
The assay buffer “AB” contained 50 mM ADA (N-(2-acetamido)iminodiacetic acid monosodium salt) pH 6.5, 1 mM dithiothreitol, 0.006% Triton-X100 and 50 mM NaCl.
The following components are added in a white polystyrene Costar plate (Ref 3912) up to a final volume of 55.5 μL: 1.5 μL DMSO or inhibitor dissolved in DMSO and 54 μL of a FabI/NADPH/NADP+ mixture in AB. After 60 min of pre-incubation at room temperature, the reaction is started by addition of 5 μL of trans-2-octenoyl N-acetylcysteamine thioester (t-o-NAC) to a final volume of 60.5 μL. This reaction mixture is then composed of 2 nM FabI, 40 μM NADPH (Sigma, N7505), 10 μM NADP+ (Sigma, N5755), 100 μM t-O-NAC and compound at defined concentration. Fluorescence intensity of NADPH (λex=360 nm, […]) is measured immediately after t-O-NAC addition (T0), and approximately 50 min later (T50) by a Fluostar Optima (BMG) so as to achieve ±30% of NADPH conversion. Enzyme activity is calculated by first subtracting TO signal to T50 and then subtracting background signal (FabI=0). Percentages of inhibition are calculated against untreated samples (Inhibitor=0) and IC50 are fitted to a classical Langmuir equilibrium model using XLFIT (IDBS).

[2] = tested on: Staphylococcus aureus NRS100; test: MIC determination using agar dilution method; type: cell-based; conditions: MRSA / NRS 100, read-out: MIC (μg/ml) NRS100
Procedure: (§1) Antibacterial activity was determined on strains from Mutabilis internal collection.
(§2) This protocol is compliant with Clinical Laboratory Standards Institute (CLSI) methodology as described in M7-A7 document of the CLSI. The compound to be tested is incorporated into Mueller-Hinton Agar medium (Fluka, Reference 70191) at one concentration per plate according to a geometric series of reason 2. Plates are inoculated with mid-log phase bacteria (inoculum=1×10^4 cfu/spot) and incubated overnight at 35° C. […] All manipulations, but compound handling (in pure DMSO), are performed under sterile conditions. The final DMSO concentration of DMSO in the plates is 2%. Vancomycin is used as reference.

[3] = tested on: Staphylococcus aureus NRS120; test: MIC determination using agar dilution method; type: cell-based; conditions: MRSA / NRS 120, read-out: MIC (μg/ml) NRS120
Procedure: as §1, §2

[4] = tested on: Staphylococcus aureus NRS121; test: MIC determination using agar dilution method; type: cell-based; conditions: MRSA / NRS 121, read-out: MIC (μg/ml) NRS121
Procedure: as §1, §2

[5] = tested on: Staphylococcus aureus NRS123; test: MIC determination using agar dilution method; type: cell-based; conditions: MRSA / NRS 123, read-out: MIC (μg/ml) NRS123
Procedure: as §1, §2

[6] = tested on: Staphylococcus aureus NRS127; test: MIC determination using agar dilution method; type: cell-based; conditions: MRSA / NRS 127, read-out: MIC (μg/ml) NRS127
Procedure: as §1, §2

[7] = tested on: Staphylococcus aureus NRS128; test: MIC determination using agar dilution method; type: cell-based; conditions: MSSA / NRS 128, read-out: MIC (μg/ml) NRS128
Procedure: as §1, §2

[8] = tested on: Staphylococcus aureus NRS130; test: MIC determination using agar dilution method; type: cell-based; conditions: MSSA / NRS 130, read-out: MIC (μg/ml) NRS130
Procedure: as §1, §2

[9] = tested on: Staphylococcus aureus NRS192; test: MIC determination using agar dilution method; type: cell-based; conditions: MRSA / NRS 192, read-out: MIC (μg/ml) NRS192
Procedure: as §1, §2

[10] = tested on: Staphylococcus aureus NRS22; test: MIC determination using agar dilution method; type: cell-based; conditions: MRSA / NRS 22, read-out: MIC (μg/ml) NRS22
Procedure: as §1, §2

[11] = tested on: Staphylococcus aureus NRS269; test: MIC determination using agar dilution method; type: cell-based; conditions: MRSA / NRS 269, read-out: MIC (μg/ml) NRS269
Procedure: as §1, §2

[12] = tested on: Staphylococcus aureus NRS383; test: MIC determination using agar dilution method; type: cell-based; conditions: MRSA / NRS 383, read-out: MIC (μg/ml) NRS383
Procedure: as §1, §2

[13] = tested on: Staphylococcus aureus NRS384; test: MIC determination using agar dilution method; type: cell-based; conditions: MRSA / NRS 384, read-out: MIC (μg/ml) NRS384
Procedure: as §1, §2

[14] = tested on: Staphylococcus aureus NRS385; test: MIC determination using agar dilution method; type: cell-based; conditions: MRSA / NRS 385, read-out: MIC (μg/ml) NRS385
Procedure: as §1, §2

[15] = tested on: Staphylococcus aureus NRS386; test: MIC determination using agar dilution method; type: cell-based; conditions: MRSA / NRS 386, read-out: MIC (μg/ml) NRS386
Procedure: as §1, §2

[16] = tested on: Staphylococcus aureus NRS482; test: MIC determination using agar dilution method; type: cell-based; conditions: MRSA / NRS 482, read-out: MIC (μg/ml) NRS482
Procedure: as §1, §2

[17] = tested on: Staphylococcus aureus NRS483; test: MIC determination using agar dilution method; type: cell-based; conditions: MRSA / NRS 483, read-out: MIC (μg/ml) NRS483
Procedure: as §1, §2

[18] = tested on: Staphylococcus aureus NRS484; test: MIC determination using agar dilution method; type: cell-based; conditions: MRSA / NRS 484, read-out: MIC (μg/ml) NRS484
Procedure: as §1, §2

[19] = tested on: Staphylococcus aureus strain ATCC 29213; test: In vivo antibacterial activity, thigh infection model in neutropenic Swiss mice; conditions: 100 mg/kg orally, 1.5 h after infection, FIG. 1
human albumin (HSA) = human albumin (HSA) (Homo sapiens (Human), UniProt P02768); test: HSA binding analysis using a chiral HSA column; type: in vitro ADME
Description: The test system used in this analysis was an HSA chiral column.
The relationship between the retention time (Tr) and percentage of albumin binding (AB %) depended on the dead time (TO) and the capacity factor (k′): AB%=[k′/(k′+1)]*100
HSA binding was classified as follows:
75%≦AB<90%: Moderate binding

Chain of human albumin (HSA) (P02768 25-609): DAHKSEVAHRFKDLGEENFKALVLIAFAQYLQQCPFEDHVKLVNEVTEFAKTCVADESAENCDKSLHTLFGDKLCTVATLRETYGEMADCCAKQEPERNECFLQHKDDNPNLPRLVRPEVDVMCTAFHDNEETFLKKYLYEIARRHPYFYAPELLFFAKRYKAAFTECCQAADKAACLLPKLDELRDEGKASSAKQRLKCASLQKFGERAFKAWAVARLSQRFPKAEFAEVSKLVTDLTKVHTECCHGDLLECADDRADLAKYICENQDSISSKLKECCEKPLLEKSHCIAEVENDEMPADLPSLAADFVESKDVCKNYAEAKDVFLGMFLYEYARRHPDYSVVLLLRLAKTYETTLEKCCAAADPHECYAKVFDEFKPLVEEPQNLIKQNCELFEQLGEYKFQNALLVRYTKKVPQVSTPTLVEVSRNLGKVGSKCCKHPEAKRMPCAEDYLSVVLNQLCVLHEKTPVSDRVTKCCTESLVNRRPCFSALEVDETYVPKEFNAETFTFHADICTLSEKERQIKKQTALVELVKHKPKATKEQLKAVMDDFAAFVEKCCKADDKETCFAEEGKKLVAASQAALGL

Q: Which results are given for `O=C1CCc2cc(/C=C/C(=O)N3CC(OCc4cccs4)C3)cnc2N1` [Example 12, 6-{(1E)-3-Oxo-3-[3-(2-thienylmethoxy)azetidin-1-yl]prop-1-en-1-yl}-3,4-dihydro-1,8-naphthyridin-2(1H)-one]?
A: pIC50 [1]: 7.89; MIC [2]: 2 µg/mL (≈ 5.41 µM); MIC [3]: 2 µg/mL (≈ 5.41 µM); MIC [4]: 2 µg/mL (≈ 5.41 µM); MIC [5]: 2 µg/mL (≈ 5.41 µM); MIC [6]: 2 µg/mL (≈ 5.41 µM); MIC [7]: 1 µg/mL (≈ 2.71 µM); MIC [8]: 2 µg/mL (≈ 5.41 µM); MIC [9]: 4 µg/mL (≈ 10.8 µM); MIC [10]: 4 µg/mL (≈ 10.8 µM); MIC [11]: 4 µg/mL (≈ 10.8 µM); MIC [12]: 4 µg/mL (≈ 10.8 µM); MIC [13]: 4 µg/mL (≈ 10.8 µM); MIC [14]: 2 µg/mL (≈ 5.41 µM); MIC [15]: 4 µg/mL (≈ 10.8 µM); MIC [16]: 4 µg/mL (≈ 10.8 µM); MIC [17]: 4 µg/mL (≈ 10.8 µM); MIC [18]: 4 µg/mL (≈ 10.8 µM); in vivo antibacterial activity (bacterial burden in the thigh of infected mice) [19]: able to protect mice against thigh dissemination; HSA Binding (%) (human albumin (HSA); AB%=[k′/(k′+1)]*100, chiral HSA column, pH 7.0): 45.2%; k′ (human albumin (HSA); capacity factor, k′=(Tr−T0)/T0): 0.826; Conclusion (HSA binding class) (human albumin (HSA); chiral HSA column): Low binding (AB<75%: Low binding); Tr (human albumin (HSA); retention time on chiral HSA column, pH 7.0, 37° C.): 1.410 min; affinity in vitro to human albumin (human albumin (HSA); text summary of Table 7): low affinity
